Data taken from ChEMBL document CHEMBL1201862, “PubChem BioAssay data set” (2004).
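Compound exposure: 48 hours, 5 concentrations, 96-well plates. Here, GI50 denotes the concentration required for 50% inhibition of growth.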 The source made the active and inactive calls. Rule as the data show it: active = GI50 up to about 1.1 µM and inactive = higher.

Columns and labels:
Assay in all cases: inhibition of tumour cell growth, NCI panel, 48 h
A498 = test system: A498
BT-549 = test system: BT-549
EKVX = test system: EKVX
HCT-116 = test system: HCT-116
HOP-62 = test system: HOP-62
K562 = test system: K562
MDA-MB-231 = test system: MDA-MB-231
MDA-MB-435 = test system: MDA-MB-435
Malme-3M = test system: Malme-3M
OVCAR-3 = test system: OVCAR-3
OVCAR-8 = test system: OVCAR-8
PC-3 = test system: PC-3
RPMI-8226 = test system: RPMI-8226
RXF 393 = test system: RXF 393
SK-MEL-28 = test system: SK-MEL-28
SK-MEL-2 = test system: SK-MEL-2
U-251 = test system: U-251
UACC-257 = test system: UACC-257
UO-31 = test system: UO-31
ACHN = test system: ACHN

Row | SMILES | GI50 (A498) | GI50 (BT-549) | GI50 (EKVX) | GI50 (HCT-116) | GI50 (HOP-62) | GI50 (K562) | GI50 (MDA-MB-231) | GI50 (MDA-MB-435) | GI50 (Malme-3M) | GI50 (OVCAR-3) | GI50 (OVCAR-8) | GI50 (PC-3) | GI50 (RPMI-8226) | GI50 (RXF 393) | GI50 (SK-MEL-28) | GI50 (SK-MEL-2) | GI50 (U-251) | GI50 (UACC-257) | GI50 (UO-31) | GI50 (ACHN)
1 | CCOC(=O)c1cc(C2(O)CCN(CC(C)CC)C2=O)c(-c2cc(C)no2)[nH]1 (stereo unspecified) | > 100 µM (inactive) | > 100 µM (inactive) | > 100 µM (inactive) | > 100 µM (inactive) | > 100 µM (inactive) | > 100 µM (inactive) | > 100 µM (inactive) | > 100 µM (inactive) | > 100 µM (inactive) | > 100 µM (inactive) | > 100 µM (inactive) | > 100 µM (inactive) | > 100 µM (inactive) | > 100 µM (inactive) | > 100 µM (inactive) | > 100 µM (inactive) | > 100 µM (inactive) | > 100 µM (inactive) | > 100 µM (inactive) | –
2 | O=S(=O)(CC(O)C(Cl)(Cl)Cl)NNc1ccccc1 (stereo unspecified) | > 100 µM (inactive) | > 100 µM (inactive) | > 100 µM (inactive) | > 100 µM (inactive) | > 100 µM (inactive) | 23 µM (inactive) | > 100 µM (inactive) | > 100 µM (inactive) | > 100 µM (inactive) | > 100 µM (inactive) | > 100 µM (inactive) | > 100 µM (inactive) | > 100 µM (inactive) | > 100 µM (inactive) | > 100 µM (inactive) | > 100 µM (inactive) | > 100 µM (inactive) | > 100 µM (inactive) | – | > 100 µM (inactive)
3 | C=C(C(=O)O)C1CCC(CC/C=C(\C)CC/C=C(\C)CCC=C(C)C)CO1 (stereo unspecified) | 19.4 µM (inactive) | 18 µM (inactive) | 13.3 µM (inactive) | 4.99 µM (inactive) | 23.1 µM (inactive) | – | 42.7 µM (inactive) | 18 µM (inactive) | 21.5 µM (inactive) | – | 18.8 µM (inactive) | 24.8 µM (inactive) | – | 12.4 µM (inactive) | 14.3 µM (inactive) | 17.3 µM (inactive) | 20.1 µM (inactive) | 15.3 µM (inactive) | 12.5 µM (inactive) | 28.6 µM (inactive)
4 | Cc1cn(CCCCCCOC(=O)NC(CCCNC(N)=O)C(=O)O)c(=O)[nH]c1=O (stereo unspecified) | > 100 µM (inactive) | > 100 µM (inactive) | > 100 µM (inactive) | > 100 µM (inactive) | > 100 µM (inactive) | > 100 µM (inactive) | > 100 µM (inactive) | > 100 µM (inactive) | – | > 100 µM (inactive) | > 100 µM (inactive) | > 100 µM (inactive) | > 100 µM (inactive) | > 100 µM (inactive) | > 100 µM (inactive) | > 100 µM (inactive) | > 100 µM (inactive) | > 100 µM (inactive) | > 100 µM (inactive) | > 100 µM (inactive)
5 | Cc1ccc(/N=N/c2c(O)ccc3cc(S(=O)(=O)O)ccc23)c(C)c1 | > 100 µM (inactive) | > 100 µM (inactive) | > 100 µM (inactive) | > 100 µM (inactive) | > 100 µM (inactive) | > 100 µM (inactive) | > 100 µM (inactive) | > 100 µM (inactive) | > 100 µM (inactive) | > 100 µM (inactive) | > 100 µM (inactive) | > 100 µM (inactive) | – | > 100 µM (inactive) | > 100 µM (inactive) | > 100 µM (inactive) | > 100 µM (inactive) | > 100 µM (inactive) | > 100 µM (inactive) | > 100 µM (inactive)
6 | COc1cc2c(c(OC)c1OC)-c1ccc(SC)c(=O)cc1[C@@H](OC(=O)c1ccncc1)CC2 | < 0.0116 µM (active) | < 0.01 µM (active) | – | < 0.01 µM (active) | – | < 0.01 µM (active) | < 0.01 µM (active) | < 0.01 µM (active) | < 0.01 µM (active) | < 0.01 µM (active) | < 0.01 µM (active) | < 0.01 µM (active) | < 0.01 µM (active) | 7.78 µM (inactive) | – | 0.407 µM (active) | < 0.01 µM (active) | < 0.01 µM (active) | < 0.01 µM (active) | < 0.01 µM (active)
7 | C[C@]12CC[C@H](O)CC1=CC[C@@H]1[C@@H]2CC[C@]2(C)C(=N/N)/C(=N\O)C[C@@H]12 | 16.7 µM (inactive) | 32.8 µM (inactive) | 74.1 µM (inactive) | 43.4 µM (inactive) | 45.9 µM (inactive) | 14.5 µM (inactive) | 32.7 µM (inactive) | 2.12 µM (inactive) | 27.1 µM (inactive) | > 100 µM (inactive) | > 100 µM (inactive) | > 100 µM (inactive) | > 100 µM (inactive) | > 100 µM (inactive) | – | 88.5 µM (inactive) | 21.6 µM (inactive) | > 100 µM (inactive) | > 100 µM (inactive) | > 100 µM (inactive)
8 | COc1ccc2c(c1)CCN1CCCc3ccccc3C21 (stereo unspecified) | > 100 µM (inactive) | 28.1 µM (inactive) | > 100 µM (inactive) | 30.9 µM (inactive) | 69.2 µM (inactive) | 30.1 µM (inactive) | 23.1 µM (inactive) | 20.5 µM (inactive) | – | 79.3 µM (inactive) | 91 µM (inactive) | 36.9 µM (inactive) | 22.3 µM (inactive) | 65.8 µM (inactive) | 50.1 µM (inactive) | 46.3 µM (inactive) | 37.2 µM (inactive) | 41.9 µM (inactive) | 29.4 µM (inactive) | 54.2 µM (inactive)
9 | COc1ccc(N2C(=O)C3ON(Cc4ccc(CC(N)=O)cc4)C(c4c5ccccc5c(C)c5ccccc45)C3C2=O)cc1 (stereo unspecified) | 46.1 µM (inactive) | 30.1 µM (inactive) | 20.9 µM (inactive) | 17.9 µM (inactive) | 40.4 µM (inactive) | 3.27 µM (inactive) | 36.5 µM (inactive) | 27.2 µM (inactive) | 35.8 µM (inactive) | 25.4 µM (inactive) | 27 µM (inactive) | 21.6 µM (inactive) | – | 14.2 µM (inactive) | > 100 µM (inactive) | 20.1 µM (inactive) | 22.8 µM (inactive) | 17.6 µM (inactive) | 16.4 µM (inactive) | 21.5 µM (inactive)
10 | CN1CCc2c(sc3ncn(Nc4ccc(F)cc4)c(=N)c23)C1 | > 100 µM (inactive) | > 100 µM (inactive) | > 100 µM (inactive) | > 100 µM (inactive) | > 100 µM (inactive) | > 100 µM (inactive) | > 100 µM (inactive) | > 100 µM (inactive) | > 100 µM (inactive) | > 100 µM (inactive) | > 100 µM (inactive) | > 100 µM (inactive) | > 100 µM (inactive) | > 100 µM (inactive) | > 100 µM (inactive) | > 100 µM (inactive) | > 100 µM (inactive) | > 100 µM (inactive) | – | > 100 µM (inactive)
11 | O=c1oc2c/c(=C\c3ccccc3)c(=O)c3cccc1c3-2 | > 100 µM (inactive) | 28.3 µM (inactive) | 75.3 µM (inactive) | 25.7 µM (inactive) | 19.9 µM (inactive) | – | 31.7 µM (inactive) | 21.4 µM (inactive) | 24.2 µM (inactive) | 23.6 µM (inactive) | 19.8 µM (inactive) | 56 µM (inactive) | 36.2 µM (inactive) | 32.5 µM (inactive) | 36.1 µM (inactive) | – | 18.6 µM (inactive) | 31.7 µM (inactive) | 30.1 µM (inactive) | > 100 µM (inactive)
12 | CCCNC1=C2C[C@@H](C)C[C@@H](OC)[C@@H](OC(=O)CCCN)[C@H](C)/C=C(\C)[C@@H](OC(N)=O)[C@H](OC)/C=C\C=C(/C)C(=O)NC(=CC1=O)C2=O | 21.8 µM (inactive) | 13.2 µM (inactive) | 17.6 µM (inactive) | 8.97 µM (inactive) | 15.6 µM (inactive) | 4.75 µM (inactive) | 14.1 µM (inactive) | 13 µM (inactive) | 12.4 µM (inactive) | 8.61 µM (inactive) | 20.7 µM (inactive) | 12.6 µM (inactive) | 5.94 µM (inactive) | 11.8 µM (inactive) | 17.6 µM (inactive) | 14.9 µM (inactive) | 11.4 µM (inactive) | – | 19.2 µM (inactive) | 19.4 µM (inactive)
13 | CC/C(=C\c1ccc(OC)cc1)c1ccc(OC)cc1 | > 100 µM (inactive) | 75.3 µM (inactive) | > 100 µM (inactive) | > 100 µM (inactive) | > 100 µM (inactive) | > 100 µM (inactive) | > 100 µM (inactive) | 45.7 µM (inactive) | 50.7 µM (inactive) | > 100 µM (inactive) | > 100 µM (inactive) | > 100 µM (inactive) | 86.3 µM (inactive) | 60.8 µM (inactive) | – | 65.6 µM (inactive) | > 100 µM (inactive) | 38.5 µM (inactive) | > 100 µM (inactive) | > 100 µM (inactive)
14 | c1ccc([P+](c2ccccc2)(c2ccccc2)c2ccc([P+](c3ccccc3)(c3ccccc3)c3ccccc3)cc2)cc1 | > 100 µM (inactive) | 31.3 µM (inactive) | – | 32 µM (inactive) | > 100 µM (inactive) | 28.4 µM (inactive) | > 100 µM (inactive) | 49.5 µM (inactive) | > 100 µM (inactive) | 48.2 µM (inactive) | 59.6 µM (inactive) | 41.4 µM (inactive) | > 100 µM (inactive) | 34.8 µM (inactive) | > 100 µM (inactive) | 34.3 µM (inactive) | 34.2 µM (inactive) | 29.2 µM (inactive) | > 100 µM (inactive) | > 100 µM (inactive)
